Data published in the kinase profiling compilation of Christmann-Franck et al. (2016).

Columns and labels:
Experiment in all cases: KINOMEscan competition binding
Details in all cases: compound 10.0 µM
[1] = target: CAMK2D (human) (UniProt Q13557)
[2] = target: IRAK3 (human) (UniProt Q9Y616)
[3] = target: EPHB2 (human) (UniProt P29323)
[4] = target: PTK2 (human) (UniProt Q05397)
[5] = target: CSF1R (human) (UniProt P07333)
[6] = target: MAP3K5 (human) (UniProt Q99683)
[7] = target: TGFBR2 (human) (UniProt P37173)
[8] = target: EPHA7 (human) (UniProt Q15375)
[9] = target: IKBKE (human) (UniProt Q14164)
[10] = target: CDK19 (human) (UniProt Q9BWU1)
[11] = target: TTK (human) (UniProt P33981)
[12] = target: RPS6KA4 KD2 (human) (UniProt O75676)
[13] = target: TLK1 (human) (UniProt Q9UKI8)
[14] = target: MAPK6 (human) (UniProt Q16659)
[15] = target: RPS6KA2 KD2 (human) (UniProt Q15349)
[16] = target: PTK2B (human) (UniProt Q14289)
[17] = target: PTK6 (human) (UniProt Q13882)
[18] = target: MAP3K4 (human) (UniProt Q9Y6R4)
[19] = target: EPHA3 (human) (UniProt P29320)
[20] = target: PAK1 (human) (UniProt Q13153)
[21] = target: EPHA6 (human) (UniProt Q9UF33)
[22] = target: CAMK2G (human) (UniProt Q13555)
[23] = target: HCK (human) (UniProt P08631)
[24] = target: STK3 (human) (UniProt Q13188)
[25] = target: DDR2 (human) (UniProt Q16832)
[26] = target: RIPK1 (human) (UniProt Q13546)
[27] = target: ACVR1 (human) (UniProt Q04771)
[28] = target: MAPK12 (human) (UniProt P53778)
[29] = target: MAPK13 (human) (UniProt O15264)
[30] = target: RIOK1 (human) (UniProt Q9BRS2)
[31] = target: ULK1 (human) (UniProt O75385)
[32] = target: RPS6KA4 KD1 (human) (UniProt O75676)
[33] = target: AAK1 (human) (UniProt Q2M2I8)
[34] = target: MAP3K7 (human) (UniProt O43318)
[35] = target: MAPK15 (human) (UniProt Q8TD08)
[36] = target: PRKCE (human) (UniProt Q02156)
[37] = target: EPHB4 (human) (UniProt P54760)
[38] = target: EPHA2 (human) (UniProt P29317)
[39] = target: ACVR2A (human) (UniProt P27037)
[40] = target: ZAP70 (human) (UniProt P43403)

Chain of TGFBR2 (human) (P37173 whole entry, looked up): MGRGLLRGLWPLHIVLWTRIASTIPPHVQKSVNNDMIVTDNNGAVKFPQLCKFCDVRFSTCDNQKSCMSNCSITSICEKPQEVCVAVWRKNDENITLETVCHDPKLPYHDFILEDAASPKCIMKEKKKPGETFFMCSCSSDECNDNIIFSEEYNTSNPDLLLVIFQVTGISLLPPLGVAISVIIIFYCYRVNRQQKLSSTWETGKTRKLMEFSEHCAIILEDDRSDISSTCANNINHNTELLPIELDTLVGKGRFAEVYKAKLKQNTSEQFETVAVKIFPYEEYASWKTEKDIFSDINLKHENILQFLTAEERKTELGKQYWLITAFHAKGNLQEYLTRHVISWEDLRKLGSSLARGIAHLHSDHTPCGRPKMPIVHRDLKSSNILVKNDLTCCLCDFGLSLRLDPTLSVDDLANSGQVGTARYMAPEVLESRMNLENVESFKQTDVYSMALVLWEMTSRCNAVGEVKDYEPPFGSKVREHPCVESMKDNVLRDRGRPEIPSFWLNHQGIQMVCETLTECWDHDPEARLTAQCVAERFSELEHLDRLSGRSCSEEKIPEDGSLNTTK
Chain of PTK2 (human) (Q05397 whole entry, looked up): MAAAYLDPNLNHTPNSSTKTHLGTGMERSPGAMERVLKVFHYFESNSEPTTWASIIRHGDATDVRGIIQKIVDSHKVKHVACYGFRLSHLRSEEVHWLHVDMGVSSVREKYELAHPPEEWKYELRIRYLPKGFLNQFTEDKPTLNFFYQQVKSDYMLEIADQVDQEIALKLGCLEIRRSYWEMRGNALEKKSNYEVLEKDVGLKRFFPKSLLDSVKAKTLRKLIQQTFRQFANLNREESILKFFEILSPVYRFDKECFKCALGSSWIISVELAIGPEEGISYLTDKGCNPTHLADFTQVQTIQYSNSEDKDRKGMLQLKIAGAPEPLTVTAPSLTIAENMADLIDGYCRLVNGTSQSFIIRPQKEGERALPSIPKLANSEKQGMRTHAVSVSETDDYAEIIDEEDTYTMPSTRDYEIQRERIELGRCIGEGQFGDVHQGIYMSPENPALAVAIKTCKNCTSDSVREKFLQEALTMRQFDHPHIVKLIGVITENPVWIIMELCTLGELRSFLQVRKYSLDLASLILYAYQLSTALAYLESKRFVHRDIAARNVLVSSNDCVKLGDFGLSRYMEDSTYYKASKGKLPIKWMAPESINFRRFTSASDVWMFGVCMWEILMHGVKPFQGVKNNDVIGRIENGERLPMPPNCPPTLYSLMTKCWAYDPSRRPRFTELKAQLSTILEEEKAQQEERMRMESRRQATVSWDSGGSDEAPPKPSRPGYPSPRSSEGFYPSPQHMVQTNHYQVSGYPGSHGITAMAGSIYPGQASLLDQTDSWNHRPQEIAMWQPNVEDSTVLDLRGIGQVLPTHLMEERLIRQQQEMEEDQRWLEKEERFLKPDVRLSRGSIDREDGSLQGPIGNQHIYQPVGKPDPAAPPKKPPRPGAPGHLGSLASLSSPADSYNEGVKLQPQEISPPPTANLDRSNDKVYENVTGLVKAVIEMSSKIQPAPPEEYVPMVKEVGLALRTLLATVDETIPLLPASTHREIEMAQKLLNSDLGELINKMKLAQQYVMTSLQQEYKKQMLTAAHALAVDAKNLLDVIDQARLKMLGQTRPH
Chain of ULK1 (human) (O75385 whole entry, looked up): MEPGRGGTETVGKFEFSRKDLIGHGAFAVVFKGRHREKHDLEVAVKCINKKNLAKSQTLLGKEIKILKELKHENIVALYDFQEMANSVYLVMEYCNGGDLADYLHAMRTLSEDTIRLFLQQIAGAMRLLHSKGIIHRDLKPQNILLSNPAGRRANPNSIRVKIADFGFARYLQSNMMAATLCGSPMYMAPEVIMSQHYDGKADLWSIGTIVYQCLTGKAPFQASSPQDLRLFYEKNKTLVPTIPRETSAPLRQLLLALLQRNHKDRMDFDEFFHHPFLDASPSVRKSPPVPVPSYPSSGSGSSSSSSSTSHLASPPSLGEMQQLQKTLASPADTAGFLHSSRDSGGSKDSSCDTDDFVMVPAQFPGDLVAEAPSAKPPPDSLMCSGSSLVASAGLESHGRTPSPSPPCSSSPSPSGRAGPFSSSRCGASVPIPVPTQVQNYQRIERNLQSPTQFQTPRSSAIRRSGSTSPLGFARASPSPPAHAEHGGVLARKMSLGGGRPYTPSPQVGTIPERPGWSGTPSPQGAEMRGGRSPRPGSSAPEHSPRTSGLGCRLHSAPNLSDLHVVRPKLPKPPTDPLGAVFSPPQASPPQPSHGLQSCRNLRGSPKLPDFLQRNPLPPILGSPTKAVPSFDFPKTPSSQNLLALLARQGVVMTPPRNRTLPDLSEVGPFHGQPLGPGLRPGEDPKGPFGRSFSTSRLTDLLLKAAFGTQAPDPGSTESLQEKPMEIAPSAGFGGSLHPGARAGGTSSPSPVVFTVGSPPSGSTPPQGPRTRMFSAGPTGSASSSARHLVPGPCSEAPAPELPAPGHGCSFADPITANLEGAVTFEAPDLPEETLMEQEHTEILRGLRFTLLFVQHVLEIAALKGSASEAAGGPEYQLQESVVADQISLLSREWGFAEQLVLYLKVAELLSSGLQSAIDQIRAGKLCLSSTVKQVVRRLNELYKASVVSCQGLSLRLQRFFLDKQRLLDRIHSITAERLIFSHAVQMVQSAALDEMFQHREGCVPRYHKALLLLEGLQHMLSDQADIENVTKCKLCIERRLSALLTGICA
Chain of CDK19 (human) (Q9BWU1 whole entry, looked up): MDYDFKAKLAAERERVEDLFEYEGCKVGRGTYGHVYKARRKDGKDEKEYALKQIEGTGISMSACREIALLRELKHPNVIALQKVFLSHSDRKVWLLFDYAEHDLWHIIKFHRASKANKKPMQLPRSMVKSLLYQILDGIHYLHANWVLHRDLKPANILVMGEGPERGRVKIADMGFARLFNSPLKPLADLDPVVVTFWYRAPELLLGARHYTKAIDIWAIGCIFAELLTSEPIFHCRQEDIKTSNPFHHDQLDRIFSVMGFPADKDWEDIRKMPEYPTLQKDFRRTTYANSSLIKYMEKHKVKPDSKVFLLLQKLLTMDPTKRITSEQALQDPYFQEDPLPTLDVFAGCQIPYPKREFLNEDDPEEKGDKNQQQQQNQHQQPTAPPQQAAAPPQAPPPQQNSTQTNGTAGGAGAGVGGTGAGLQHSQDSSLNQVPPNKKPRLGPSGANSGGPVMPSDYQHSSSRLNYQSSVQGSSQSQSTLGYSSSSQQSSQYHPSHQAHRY
Chain of EPHA6 (human) (Q9UF33 whole entry, looked up): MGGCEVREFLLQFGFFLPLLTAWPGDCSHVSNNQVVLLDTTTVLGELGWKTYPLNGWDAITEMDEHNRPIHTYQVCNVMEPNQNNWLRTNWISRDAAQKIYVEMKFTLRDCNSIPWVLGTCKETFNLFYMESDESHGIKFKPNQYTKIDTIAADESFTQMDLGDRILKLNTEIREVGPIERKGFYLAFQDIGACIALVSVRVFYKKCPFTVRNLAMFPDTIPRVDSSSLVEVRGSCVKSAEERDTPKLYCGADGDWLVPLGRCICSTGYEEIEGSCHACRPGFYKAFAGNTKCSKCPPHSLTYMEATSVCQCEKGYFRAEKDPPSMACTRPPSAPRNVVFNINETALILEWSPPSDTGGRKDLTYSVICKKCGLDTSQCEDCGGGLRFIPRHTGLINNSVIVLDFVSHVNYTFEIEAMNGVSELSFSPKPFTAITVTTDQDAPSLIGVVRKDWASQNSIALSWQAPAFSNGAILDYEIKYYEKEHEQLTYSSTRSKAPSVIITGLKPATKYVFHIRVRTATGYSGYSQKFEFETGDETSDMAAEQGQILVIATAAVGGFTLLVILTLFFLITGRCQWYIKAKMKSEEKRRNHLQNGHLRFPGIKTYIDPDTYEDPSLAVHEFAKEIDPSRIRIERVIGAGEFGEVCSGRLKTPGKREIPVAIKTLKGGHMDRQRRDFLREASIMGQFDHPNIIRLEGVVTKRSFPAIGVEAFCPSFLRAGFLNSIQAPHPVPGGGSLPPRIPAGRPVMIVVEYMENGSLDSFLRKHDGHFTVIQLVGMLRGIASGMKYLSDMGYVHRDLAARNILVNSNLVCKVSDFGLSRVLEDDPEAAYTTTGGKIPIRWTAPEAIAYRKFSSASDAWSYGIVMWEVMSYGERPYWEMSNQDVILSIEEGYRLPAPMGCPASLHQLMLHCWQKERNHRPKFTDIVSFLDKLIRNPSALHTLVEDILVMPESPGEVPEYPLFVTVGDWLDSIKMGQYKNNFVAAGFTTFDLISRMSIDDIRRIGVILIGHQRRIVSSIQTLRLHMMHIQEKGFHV
Chain of CAMK2G (human) (Q13555 whole entry, looked up): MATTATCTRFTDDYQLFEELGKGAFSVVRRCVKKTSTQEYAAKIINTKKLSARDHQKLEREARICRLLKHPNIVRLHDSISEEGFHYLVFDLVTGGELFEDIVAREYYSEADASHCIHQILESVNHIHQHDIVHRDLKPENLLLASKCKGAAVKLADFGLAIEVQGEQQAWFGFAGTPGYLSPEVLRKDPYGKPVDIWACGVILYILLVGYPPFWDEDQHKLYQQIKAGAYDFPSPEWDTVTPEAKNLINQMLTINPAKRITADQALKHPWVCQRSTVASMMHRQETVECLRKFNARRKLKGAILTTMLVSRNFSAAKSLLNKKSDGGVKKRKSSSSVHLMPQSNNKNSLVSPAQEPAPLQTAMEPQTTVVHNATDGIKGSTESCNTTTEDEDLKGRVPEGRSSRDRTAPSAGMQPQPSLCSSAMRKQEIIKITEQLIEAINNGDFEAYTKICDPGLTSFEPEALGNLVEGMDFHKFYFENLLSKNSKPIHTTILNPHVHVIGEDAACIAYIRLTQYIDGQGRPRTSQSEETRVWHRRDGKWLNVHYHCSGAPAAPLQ

| SMILES | kinase still bound, per cent of control [1] [%] | kinase still bound, per cent of control [2] [%] | kinase still bound, per cent of control [3] [%] | kinase still bound, per cent of control [4] [%] | kinase still bound, per cent of control [5] [%] | kinase still bound, per cent of control [6] [%] | kinase still bound, per cent of control [7] [%] | kinase still bound, per cent of control [8] [%] | kinase still bound, per cent of control [9] [%] | kinase still bound, per cent of control [10] [%] | kinase still bound, per cent of control [11] [%] | kinase still bound, per cent of control [12] [%] | kinase still bound, per cent of control [13] [%] | kinase still bound, per cent of control [14] [%] | kinase still bound, per cent of control [15] [%] | kinase still bound, per cent of control [17] [%] | kinase still bound, per cent of control [18] [%] | kinase still bound, per cent of control [19] [%] | kinase still bound, per cent of control [20] [%] | kinase still bound, per cent of control [21] [%] | further results |
| --- | --- | --- | --- | --- | --- | --- | --- | --- | --- | --- | --- | --- | --- | --- | --- | --- | --- | --- | --- | --- | --- |
| COc1cc(N2CCN(C)CC2)ccc1Nc1nc(N)c(C(=O)c2c(Cl)cccc2Cl)s1 | 23 | 90 | 100 | 62 | 67 | 100 | 92 | 88 | 87 | 93 | 20 | 100 | 86 | 100 | 2.9 | 100 | 100 | 82 | 91 | 99 | kinase still bound, per cent of control [16]: 42%; kinase still bound, per cent of control [22]: 17%; kinase still bound, per cent of control [23]: 100%; kinase still bound, per cent of control [24]: 85%; kinase still bound, per cent of control [25]: 100%; kinase still bound, per cent of control [26]: 100%; kinase still bound, per cent of control [27]: 100%; kinase still bound, per cent of control [28]: 100%; kinase still bound, per cent of control [29]: 63%; kinase still bound, per cent of control [30]: 100%; kinase still bound, per cent of control [31]: 93%; kinase still bound, per cent of control [32]: 100%; kinase still bound, per cent of control [33]: 61%; kinase still bound, per cent of control [34]: 78%; kinase still bound, per cent of control [35]: 84%; kinase still bound, per cent of control [36]: 68%; kinase still bound, per cent of control [37]: 97% |
| Cc1ccc2nc(NCCN)c3ncc(C)n3c2c1 | 100 | 72 | 100 | 97 | 16 | 80 | 93 | 100 | 100 | 100 | 100 | 15 | 82 | 27 | 97 | 99 | 100 | 100 | 100 | 100 | kinase still bound, per cent of control [16]: 100%; kinase still bound, per cent of control [38]: 93%; kinase still bound, per cent of control [22]: 100%; kinase still bound, per cent of control [23]: 100%; kinase still bound, per cent of control [24]: 90%; kinase still bound, per cent of control [25]: 100%; kinase still bound, per cent of control [26]: 100%; kinase still bound, per cent of control [39]: 92%; kinase still bound, per cent of control [27]: 100%; kinase still bound, per cent of control [28]: 100%; kinase still bound, per cent of control [29]: 100%; kinase still bound, per cent of control [30]: 100%; kinase still bound, per cent of control [40]: 100%; kinase still bound, per cent of control [32]: 100%; kinase still bound, per cent of control [33]: 78%; kinase still bound, per cent of control [34]: 100%; kinase still bound, per cent of control [35]: 19%; kinase still bound, per cent of control [36]: 100%; kinase still bound, per cent of control [37]: 100% |
| CC[C@@H]1C(=O)N(C)c2cnc(Nc3ccc(C(=O)NC4CCN(C)CC4)cc3OC)nc2N1C1CCCC1 | 100 | 100 | 100 | 2.4 | 100 | 100 | 100 | 100 | 100 | 100 | 6.3 | 0 | 100 | 100 | 7.2 | 100 | 100 | 100 | 100 | 100 | kinase still bound, per cent of control [16]: 20%; kinase still bound, per cent of control [38]: 100%; kinase still bound, per cent of control [22]: 100%; kinase still bound, per cent of control [23]: 100%; kinase still bound, per cent of control [25]: 100%; kinase still bound, per cent of control [26]: 100%; kinase still bound, per cent of control [39]: 100%; kinase still bound, per cent of control [27]: 100%; kinase still bound, per cent of control [28]: 100%; kinase still bound, per cent of control [29]: 100%; kinase still bound, per cent of control [30]: 100%; kinase still bound, per cent of control [40]: 100%; kinase still bound, per cent of control [31]: 100%; kinase still bound, per cent of control [32]: 100%; kinase still bound, per cent of control [33]: 100%; kinase still bound, per cent of control [34]: 100%; kinase still bound, per cent of control [35]: 100%; kinase still bound, per cent of control [36]: 100%; kinase still bound, per cent of control [37]: 100% |
| O=C(O)c1ccc(Nc2ncc3c(n2)-c2ccc(Cl)cc2C(c2c(F)cccc2F)=NC3)cc1 | 95 | 15 | 50 | 23 | 38 | 100 | 58 | 8.8 | 68 | 96 | 63 | 100 | 77 | 92 | 64 | 77 | 36 | 15 | 80 | 14 | kinase still bound, per cent of control [22]: 98%; kinase still bound, per cent of control [24]: 48%; kinase still bound, per cent of control [25]: 3.6%; kinase still bound, per cent of control [26]: 100%; kinase still bound, per cent of control [39]: 95%; kinase still bound, per cent of control [27]: 100%; kinase still bound, per cent of control [28]: 97%; kinase still bound, per cent of control [29]: 100%; kinase still bound, per cent of control [30]: 100%; kinase still bound, per cent of control [40]: 100%; kinase still bound, per cent of control [31]: 40%; kinase still bound, per cent of control [32]: 100%; kinase still bound, per cent of control [33]: 90%; kinase still bound, per cent of control [34]: 80%; kinase still bound, per cent of control [35]: 90%; kinase still bound, per cent of control [36]: 72%; kinase still bound, per cent of control [37]: 11% |
